Measured values reported in patent US11957783B2, “Topical immunosensitizers to treat viral and fungal infections” (Squarex, LLC, priority 2018, dated 2024).
Several values for one entry are separate records, joined by “and”; a condition that tells them apart may be missing. Equal values may be shown once. Marks after values point to notes of the source that are not given here.

Tested on: herpes labialis outbreak
Assay: Clinical trial of herpes labialis outbreaks after sensitization dose (Example 2)
Assay type: in vivo, human
Conditions: for Average days to first outbreak after the sensitization dose: 120 days used if no outbreak in 120 days
Protocol: The median time to the next outbreak for the placebo group was 40 days vs more than 122 days for the 2.0% SADBE group, which difference was highly significant (P=0.009) (Palli 2017). SADBE is a topical immunosensitizer that induces a delayed-type hypersensitivity response and is commonly used in the treatment of verruca vulgaris and alopecia areata (Lee 1999; Silverberg 2000, Rokhshar 1998). […]
(p<0.05). The average days to the first outbreak after the sensitization dose was also measured. […] The A: placebo, 0% SADBE in DMSO.

In the case of `CCCCOc1c(OCCCC)c(=O)c1=O` [2% SADBE], the “Persons having an outbreak within X days after the sensitization dose” value (“Persons having an outbreak within X days” below) (30 days, group B) is reported as 2 (of 16), the “Persons having an outbreak within X days” value (30 days, group C) is reported as 3 (of 15) and the “Persons having an outbreak within X days” value (30 days, groups B + C) is reported as 5 (of 31). The “Persons having an outbreak within X days” value (45 days, group B) was 4 (of 16), the “Persons having an outbreak within X days” value (45 days, group C) was 4 (of 15) and the “Persons having an outbreak within X days” value (45 days, groups B + C) was 8 (of 31). The “Persons having an outbreak within X days” value (60 days, group B) was 5 (of 16), the “Persons having an outbreak within X days” value (60 days, group C) was 4 (of 15) and the “Persons having an outbreak within X days” value (60 days, groups B + C) was 9 (of 31). The “Persons having an outbreak within X days” value (<120 days, group B) was 6 (of 16), the “Persons having an outbreak within X days” value (<120 days, group C) was 4 (of 15) and the “Persons having an outbreak within X days” value (<120 days, groups B + C) was 10 (of 31). For the same compound, the “Days to first new outbreak after sensitization dose on upper arm” value (each patient) was 18 days and 34 days and 37 days and 41 days and 50 days and 80 days and 91 days and >120 days (19×) and 14 days (2×) and 15 days, the “Average days to first outbreak after the sensitization dose” value (“Average days to first outbreak” below) (group B) was 88.5 days and the “Average days to first outbreak” value (group C) was 94.7 days. For the same compound, the “Average days to first outbreak” value (groups B + C) was 91.5* days and the “Days to first new outbreak after sensitization dose on upper arm, median” value (treatment group) was > 120 days.
